Laboratory results as given in publication PMC12266748, “A Xanthine Derivative With Novel Heat Shock Protein 90‐Alpha Inhibitory and Senolytic Properties” (Aging Cell, 2025).

How the values were obtained:
[1] = Thermodynamic solubility, shake flask method; type: physicochemical; settings: PBS buffer; PBS pH 7.4, 24 h at 37°C
Experimental: (§1) APHAD S.r.l (Buccinasco, MI, Italy) performed all evaluations. Detailed protocols are reported in the extended methods section.
Thermodynamic solubility. The shake flask method measured the thermodynamic solubility of K4 and K5 in PBS buffers at pH 7.4. A saturated solution of the compounds was prepared by incubating the 2 compounds in PBS buffer for 24 h at 37°C under agitation. At the end of the incubation, samples were centrifuged, two aliquots were diluted in acetonitrile (CAN), and each sample was then injected into LC-MS/MS (ESI interface) and quantified on a calibration curve prepared by sequential dilution in ACN. Samples were analyzed on UPLC Acquity (Waters) interfaced with API 3200 (AB Sciex) Triple Quadrupole Mass spectrometer. For K4, a Synergy Polar C18 column was used (50x2, 1mm 5µm, Phenomenex, Temp 35°C, Inj volume 10 µL, mobile phase A: water +0.1% FA, and phase B: ACN 0.1% FA, gradient: 5%-98% B, flow: 0.3 mL/min). For K5, a Gemini NX C18 column was used (50x2, 1mm 5µm, Phenomenex, Temp 35°C, Inj volume 10 µL, mobile phase A: 5mM ammonium formate +0.1% FA, and phase B: MeOH +5%, gradient: 5%-98% B, flow: 0.3 mL/min).

[2] = Phase I stability in mouse liver microsomes; type: in vitro ADME; settings: 1 µM, 0.5 mg/mL microsomes
Experimental: as §1
(§2) Phase I stability in human and mouse liver microsomes. The metabolic stability of K4 and K5 was evaluated after incubation with mouse and human liver microsomes. Briefly, the 2 compounds were dissolved in DMSO and pre-incubated, at the final concentration of 1µM, for 10 min at 37°C in potassium phosphate buffer 50 mM, pH 7.4, 3 mM MgCl2, with mouse and human liver microsomes (Sigma) at the final concentration of 0.5 mg/mL. After the pre-incubation period, reactions were started by adding the cofactors mixture (NADP, Glc6P, Glc6P-DH in 2% Sodium bicarbonate); samples were taken at time 0, 10, 20, 30, and 60 min, and added to ACN with Verapamil 0.1 µM as Internal Standard (IS) to stop the reaction. After centrifugation, the supernatants were analyzed using LC-MS/MS. A control sample without cofactors was added to check the stability of test compounds in the matrix after 60 min. 7-Ethoxycoumarin (7-EC) and propranolol were added as positive reference standards. Samples were analyzed on Acquity UPLC (Waters) coupled with an API 3200 Triple Quadrupole ABSciex. […] The percent of the area of the test compound remaining at the various incubation times was calculated based on the area of the compound at time 0 min. […]

[3] = Phase I stability in human liver microsomes; type: in vitro ADME; settings: 1 µM, 0.5 mg/mL microsomes
Experimental: as §1, §2

HSP90α [4] = biological target: T1, HSP90α (Homo sapiens, UniProt P07900); test: HSP90 N-Terminal Domain Assay Kit, fluorescence polarization competition with FITC-Geldanamycin; type: binding; set-up: purchased BPS Bioscience 50293; settings: dose-response 1 pM to 10 μM, n = 3, extrapolated with GraphPad Prism; read-out: HSP90α inhibition IC50
Experimental: HSP90‐directed inhibitory activity was assessed employing the HSP90 N‐Terminal Domain Assay Kit (BPS Bioscience) according to the manufacturer's instructions. The fluorescence intensity was measured with a multiplate reader (Victor Nivo‐Perkin Elmer). The IC50 was calculated by analyzing the data using GraphPad Prism 10 software.
HSP90 inhibition activity assay. […] […] […] Data are the percentage of residual enzyme activity relative to the solvent (DMSO). The IC50s were calculated by analyzing the data using GraphPad Prism 10 software.

GRP94 = GRP94 (Homo sapiens, UniProt P14625); test: Cellular thermal shift assay (CETSA) on cellular lysates, GRP94; settings: 46°C, compound 0.5 mM
Experimental: (§3) Cellular Thermal Shift Assay (CETSA). […] Briefly, the cellular extract was lysed in RIPA buffer (10 mM Tris-HCl pH 7.4, 250 mM NaCl, 1% NP40/IGEPAL, 1% DOC, 0.01% SDS, 0.01% Glycerol, supplemented with protease/phosphatase inhibitor, PI/PhI mix and 2 mM DTT) and protein concentration was determined by a BCA kit (Pierce, Life Technologies, TFS, Waltham, MA, USA). Samples were homogenized by 3 cycles of freeze-thawing using liquid nitrogen and centrifuged at 13000 rpm at 4 °C for 30 min to separate the soluble fraction from the debris.
(§4) Following the supplier's recommendations, samples were loaded into the proper cartridge (12- 230 kDa Wes/Jess Separation Modules, ProteinSimple, Biotechne, Minneapolis, MN, USA). HSP90α (1:50, MsMAb, Abcam), HSP90β (1:50, RbMAb, Abcam), GRP94 (1:50, RbMAb, Abcam), TRAP1 (1:50, MsMAb, Abcam), α-Tubulin (1:500, MsMAb, Abcam), and β-Actin (1:500, RbMAb, Abcam) were used as primary antibodies. Secondary antibodies were Anti-Mouse Secondary HRP and Anti-Rabbit Secondary HRP (ProteinSimple, Biotechne, Minneapolis, MN, USA).

TRAP1 = biological target: T2, TRAP1 (Homo sapiens, UniProt Q12931); test: Cellular thermal shift assay (CETSA) on cellular lysates, TRAP1; settings: 46°C, compound 0.5 mM
T2 sequence (Q12931 60-704): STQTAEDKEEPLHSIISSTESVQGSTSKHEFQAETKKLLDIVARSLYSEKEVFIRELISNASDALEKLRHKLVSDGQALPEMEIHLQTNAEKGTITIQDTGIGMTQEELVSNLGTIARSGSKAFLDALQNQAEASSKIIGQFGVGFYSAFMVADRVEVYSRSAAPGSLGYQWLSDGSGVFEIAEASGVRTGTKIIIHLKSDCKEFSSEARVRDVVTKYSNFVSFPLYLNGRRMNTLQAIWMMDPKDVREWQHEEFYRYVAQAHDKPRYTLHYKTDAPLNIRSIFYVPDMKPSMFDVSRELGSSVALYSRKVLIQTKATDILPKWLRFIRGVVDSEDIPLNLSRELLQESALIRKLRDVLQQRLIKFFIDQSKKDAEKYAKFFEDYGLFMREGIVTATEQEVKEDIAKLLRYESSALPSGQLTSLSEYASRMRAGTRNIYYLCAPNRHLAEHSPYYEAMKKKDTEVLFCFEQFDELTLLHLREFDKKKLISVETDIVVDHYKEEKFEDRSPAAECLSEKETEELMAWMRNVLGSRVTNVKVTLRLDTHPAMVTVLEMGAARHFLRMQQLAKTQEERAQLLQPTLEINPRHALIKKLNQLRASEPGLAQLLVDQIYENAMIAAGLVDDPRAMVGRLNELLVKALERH
Experimental: as §3, §4

HSP90α [5] = biological target: T1, HSP90α; test: Cellular thermal shift assay (CETSA) on cellular lysates, HSP90α; settings: 46°C, compound 0.5 mM
Experimental: as §3, §4

HSP90β = HSP90β (Homo sapiens, UniProt P08238); test: Cellular thermal shift assay (CETSA) on cellular lysates, HSP90β; settings: 46°C, compound 0.5 mM
Sequence of HSP90β (P08238 whole entry): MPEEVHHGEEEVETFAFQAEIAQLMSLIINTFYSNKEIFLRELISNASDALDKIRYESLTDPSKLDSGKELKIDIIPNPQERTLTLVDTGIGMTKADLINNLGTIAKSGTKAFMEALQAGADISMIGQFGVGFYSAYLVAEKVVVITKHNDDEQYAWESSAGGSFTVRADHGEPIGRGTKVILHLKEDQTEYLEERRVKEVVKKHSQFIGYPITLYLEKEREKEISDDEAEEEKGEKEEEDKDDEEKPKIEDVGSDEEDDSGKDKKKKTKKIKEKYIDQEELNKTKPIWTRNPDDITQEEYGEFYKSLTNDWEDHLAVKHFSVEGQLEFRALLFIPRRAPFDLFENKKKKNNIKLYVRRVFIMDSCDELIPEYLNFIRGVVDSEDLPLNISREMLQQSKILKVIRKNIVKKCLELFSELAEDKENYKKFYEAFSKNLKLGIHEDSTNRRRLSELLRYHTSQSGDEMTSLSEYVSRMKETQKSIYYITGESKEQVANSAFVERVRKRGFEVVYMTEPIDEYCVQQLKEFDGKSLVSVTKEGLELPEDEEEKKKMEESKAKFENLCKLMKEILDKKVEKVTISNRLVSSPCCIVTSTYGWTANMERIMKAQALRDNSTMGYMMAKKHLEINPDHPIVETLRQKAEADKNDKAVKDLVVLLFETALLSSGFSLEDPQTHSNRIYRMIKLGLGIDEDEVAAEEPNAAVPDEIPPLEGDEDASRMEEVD
Experimental: as §3, §4

Sequence of GRP94 (P14625 22-803): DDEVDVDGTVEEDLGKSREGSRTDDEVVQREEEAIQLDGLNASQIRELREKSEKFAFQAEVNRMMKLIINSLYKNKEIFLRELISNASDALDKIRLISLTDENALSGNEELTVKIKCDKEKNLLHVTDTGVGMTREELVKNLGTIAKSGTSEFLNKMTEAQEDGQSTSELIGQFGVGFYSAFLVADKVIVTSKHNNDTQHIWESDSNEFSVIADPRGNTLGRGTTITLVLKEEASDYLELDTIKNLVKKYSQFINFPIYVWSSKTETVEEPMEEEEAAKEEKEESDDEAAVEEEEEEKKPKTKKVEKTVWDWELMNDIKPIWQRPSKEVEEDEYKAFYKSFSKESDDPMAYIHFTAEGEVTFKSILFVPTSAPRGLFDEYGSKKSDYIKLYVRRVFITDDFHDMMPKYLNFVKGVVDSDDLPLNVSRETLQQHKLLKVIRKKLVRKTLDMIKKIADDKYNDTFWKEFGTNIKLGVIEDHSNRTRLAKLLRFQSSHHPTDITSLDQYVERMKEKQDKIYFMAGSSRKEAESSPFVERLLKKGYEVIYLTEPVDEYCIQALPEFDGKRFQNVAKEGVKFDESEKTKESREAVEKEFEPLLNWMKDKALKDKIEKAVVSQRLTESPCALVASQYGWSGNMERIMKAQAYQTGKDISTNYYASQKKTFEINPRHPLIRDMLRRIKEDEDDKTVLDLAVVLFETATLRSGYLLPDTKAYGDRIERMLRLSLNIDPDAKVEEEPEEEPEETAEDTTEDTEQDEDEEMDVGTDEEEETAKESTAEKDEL

SMILES | solubility thermodynamic at 24 h [1] [µg/mL] | clearance in mouse microsomes [2] | metabolic stability in human microsomes [3] | IC50 (HSP90α [4]) [nM] | stabilization of GRP94 in CETSA (GRP94) | stabilization of TRAP1 in CETSA (TRAP1) | interaction / stabilization of HSP90α in CETSA (HSP90α [5]) | stabilization of HSP90β in CETSA (HSP90β)
CC(C)(C)S(=O)(=O)C/C(N)=N/OS(=O)(=O)c1ccc(F)cc1F [Compound K4, (Z)-N'-[(2,4-difluorobenzenesulfonyl)oxy]-2-(2-methylpropane-2-sulfonyl)ethanimidamide] | ~400 | medium clearance | stable | 155 | did not observe a stabilization | did not observe a stabilization | potent and selective interaction | did not observe a stabilization
Cc1ccccc1-n1c(=O)n(Cc2ccccc2)c(=O)c2[nH]cnc21 [Compound K5, 1-benzyl-3-(2-methylphenyl)-7H-purine-2,6-dione] | ~200 | medium clearance | stable | 111 | did not observe a stabilization | did not observe a stabilization | potent and selective interaction | did not observe a stabilization
